We go through ten molecules from patent US7326288B2, “Trisazo compound, ink composition, and colored object” (Nippon Kayaku Kabushiki Kaisha, priority 2003, dated 2008).

For orientation: solubility means the dissolved amount per volume that the medium holds. A low value points to little dissolved substance.

A short description of data set [1]: solubility in water of the isolated trisazo compound. In kind it is physicochemical.
The nature of data set [2]: Solubility Test (ammonia alkalinity, spot on filter paper). In kind it is physicochemical. The note with it: aqueous buffer, thermodynamic from solid. As to the method: Using ion exchanged water for a water, pH was adjusted at 9 to 9.5 with aqueous ammonia. They were treated with ultrasonic vessel at ordinary temperature. Toyo Filter Paper No. 131 was spotted with them, surface of which after dried was observed and solubility of which was determined. When a spot was uniform and insoluble material were not observed, it was judged to be soluble. When a spot was ununiform and insoluble material were observed, it was judged to be not soluble.

In data set [1], `Nc1c(N=Nc2ccc3c(O)c(N=Nc4ccc([N+](=O)[O-])cc4S(=O)(=O)O)c(S(=O)(=O)O)cc3c2S(=O)(=O)O)cc(S(=O)(=O)O)c2cc(S(=O)(=O)O)c(N=Nc3ccc([N+](=O)[O-])cc3S(=O)(=O)O)c(O)c12` [compound 5] yielded a solubility of at least 100 mg/mL.
With `Nc1c(N=Nc2ccc3c(O)c(N=Nc4cc(S(=O)(=O)O)ccc4S(=O)(=O)O)c(S(=O)(=O)O)cc3c2S(=O)(=O)O)cc(S(=O)(=O)O)c2cc(S(=O)(=O)O)c(N=Nc3ccc([N+](=O)[O-])cc3S(=O)(=O)O)c(O)c12` [Formula (2-10)], the solubility in data set [2] was at least 120 mg/mL.
As for `Nc1c(N=Nc2ccc3c(O)c(N=Nc4cc(C(=O)O)cc(C(=O)O)c4)c(S(=O)(=O)O)cc3c2S(=O)(=O)O)cc(S(=O)(=O)O)c2cc(S(=O)(=O)O)c(N=Nc3ccc([N+](=O)[O-])cc3S(=O)(=O)O)c(O)c12` [compound 24], the solubility in data set [1] is at least 100 mg/mL.
On to `COc1ccc(N=Nc2c(S(=O)(=O)O)cc3c(S(=O)(=O)O)c(N=Nc4cc(S(=O)(=O)O)c5cc(S(=O)(=O)O)c(N=Nc6ccc([N+](=O)[O-])cc6S(=O)(=O)O)c(O)c5c4N)ccc3c2O)c(S(=O)(=O)O)c1` [compound 1], for which the solubility in data set [1] is at least 100 mg/mL.
For `Nc1c(N=Nc2ccc3c(O)c(N=Nc4cc(C(=O)O)cc(C(=O)O)c4)c(S(=O)(=O)O)cc3c2S(=O)(=O)O)cc(S(=O)(=O)O)c2cc(S(=O)(=O)O)c(N=Nc3ccc(S(=O)(=O)O)cc3[N+](=O)[O-])c(O)c12` [compound 26], the solubility in data set [1] is at least 100 mg/mL.
`Nc1c(N=Nc2ccc3c(O)c(N=Nc4ccc(S(=O)(=O)O)cc4C(=O)O)c(S(=O)(=O)O)cc3c2S(=O)(=O)O)cc(S(=O)(=O)O)c2cc(S(=O)(=O)O)c(N=Nc3ccc([N+](=O)[O-])cc3S(=O)(=O)O)c(O)c12` [compound 2] showed a solubility in data set [1] of at least 100 mg/mL.
On to `Nc1c(N=Nc2ccc3c(O)c(N=Nc4ccc(S(N)(=O)=O)cc4C(=O)O)c(S(=O)(=O)O)cc3c2S(=O)(=O)O)cc(S(=O)(=O)O)c2cc(S(=O)(=O)O)c(N=Nc3ccc([N+](=O)[O-])cc3S(=O)(=O)O)c(O)c12` [compound 4], for which the solubility in data set [1] is at least 100 mg/mL.
On the same count and under the same terms, the figure for `Nc1c(N=Nc2ccc3c(O)c(N=Nc4cc(S(=O)(=O)O)c5cc([N+](=O)[O-])cc(S(=O)(=O)O)c5c4)c(S(=O)(=O)O)cc3c2S(=O)(=O)O)cc(S(=O)(=O)O)c2cc(S(=O)(=O)O)c(N=Nc3ccc([N+](=O)[O-])cc3S(=O)(=O)O)c(O)c12` [compound 20] is at least 100 mg/mL; for `Nc1c(N=Nc2ccc3c(O)c(N=Nc4cc(C(=O)O)ccc4C(=O)O)c(S(=O)(=O)O)cc3c2S(=O)(=O)O)cc(S(=O)(=O)O)c2cc(S(=O)(=O)O)c(N=Nc3ccc([N+](=O)[O-])cc3S(=O)(=O)O)c(O)c12` [compound 3] it is at least 100 mg/mL; for `CNS(=O)(=O)c1ccc(N=Nc2c(S(=O)(=O)O)cc3c(S(=O)(=O)O)c(N=Nc4cc(S(=O)(=O)O)c5cc(S(=O)(=O)O)c(N=Nc6ccc([N+](=O)[O-])cc6S(=O)(=O)O)c(O)c5c4N)ccc3c2O)c(C(=O)O)c1` [compound 9] it is at least 100 mg/mL.
